Experimental data taken from patent publication US9682985B2, “(Indazol-4-yl) hexahydropyrrolopyrrolones and methods of use” (AbbVie Inc., priority 2015, dated 2017).

How the values were obtained:
recombinant human Nav1.7 = target: T1, recombinant human Nav1.7 (Homo sapiens, UniProt Q15858); experiment: FRET-based membrane potential assay, Nav1.7; assay type: cell-based; conditions: HEK293 cells expressing recombinant human Nav1.7; veratridine + scorpion venom depolarization
T1 construct: expressed in transfected cells; host or cells: HEK293
T1 sequence (Q15858 whole entry): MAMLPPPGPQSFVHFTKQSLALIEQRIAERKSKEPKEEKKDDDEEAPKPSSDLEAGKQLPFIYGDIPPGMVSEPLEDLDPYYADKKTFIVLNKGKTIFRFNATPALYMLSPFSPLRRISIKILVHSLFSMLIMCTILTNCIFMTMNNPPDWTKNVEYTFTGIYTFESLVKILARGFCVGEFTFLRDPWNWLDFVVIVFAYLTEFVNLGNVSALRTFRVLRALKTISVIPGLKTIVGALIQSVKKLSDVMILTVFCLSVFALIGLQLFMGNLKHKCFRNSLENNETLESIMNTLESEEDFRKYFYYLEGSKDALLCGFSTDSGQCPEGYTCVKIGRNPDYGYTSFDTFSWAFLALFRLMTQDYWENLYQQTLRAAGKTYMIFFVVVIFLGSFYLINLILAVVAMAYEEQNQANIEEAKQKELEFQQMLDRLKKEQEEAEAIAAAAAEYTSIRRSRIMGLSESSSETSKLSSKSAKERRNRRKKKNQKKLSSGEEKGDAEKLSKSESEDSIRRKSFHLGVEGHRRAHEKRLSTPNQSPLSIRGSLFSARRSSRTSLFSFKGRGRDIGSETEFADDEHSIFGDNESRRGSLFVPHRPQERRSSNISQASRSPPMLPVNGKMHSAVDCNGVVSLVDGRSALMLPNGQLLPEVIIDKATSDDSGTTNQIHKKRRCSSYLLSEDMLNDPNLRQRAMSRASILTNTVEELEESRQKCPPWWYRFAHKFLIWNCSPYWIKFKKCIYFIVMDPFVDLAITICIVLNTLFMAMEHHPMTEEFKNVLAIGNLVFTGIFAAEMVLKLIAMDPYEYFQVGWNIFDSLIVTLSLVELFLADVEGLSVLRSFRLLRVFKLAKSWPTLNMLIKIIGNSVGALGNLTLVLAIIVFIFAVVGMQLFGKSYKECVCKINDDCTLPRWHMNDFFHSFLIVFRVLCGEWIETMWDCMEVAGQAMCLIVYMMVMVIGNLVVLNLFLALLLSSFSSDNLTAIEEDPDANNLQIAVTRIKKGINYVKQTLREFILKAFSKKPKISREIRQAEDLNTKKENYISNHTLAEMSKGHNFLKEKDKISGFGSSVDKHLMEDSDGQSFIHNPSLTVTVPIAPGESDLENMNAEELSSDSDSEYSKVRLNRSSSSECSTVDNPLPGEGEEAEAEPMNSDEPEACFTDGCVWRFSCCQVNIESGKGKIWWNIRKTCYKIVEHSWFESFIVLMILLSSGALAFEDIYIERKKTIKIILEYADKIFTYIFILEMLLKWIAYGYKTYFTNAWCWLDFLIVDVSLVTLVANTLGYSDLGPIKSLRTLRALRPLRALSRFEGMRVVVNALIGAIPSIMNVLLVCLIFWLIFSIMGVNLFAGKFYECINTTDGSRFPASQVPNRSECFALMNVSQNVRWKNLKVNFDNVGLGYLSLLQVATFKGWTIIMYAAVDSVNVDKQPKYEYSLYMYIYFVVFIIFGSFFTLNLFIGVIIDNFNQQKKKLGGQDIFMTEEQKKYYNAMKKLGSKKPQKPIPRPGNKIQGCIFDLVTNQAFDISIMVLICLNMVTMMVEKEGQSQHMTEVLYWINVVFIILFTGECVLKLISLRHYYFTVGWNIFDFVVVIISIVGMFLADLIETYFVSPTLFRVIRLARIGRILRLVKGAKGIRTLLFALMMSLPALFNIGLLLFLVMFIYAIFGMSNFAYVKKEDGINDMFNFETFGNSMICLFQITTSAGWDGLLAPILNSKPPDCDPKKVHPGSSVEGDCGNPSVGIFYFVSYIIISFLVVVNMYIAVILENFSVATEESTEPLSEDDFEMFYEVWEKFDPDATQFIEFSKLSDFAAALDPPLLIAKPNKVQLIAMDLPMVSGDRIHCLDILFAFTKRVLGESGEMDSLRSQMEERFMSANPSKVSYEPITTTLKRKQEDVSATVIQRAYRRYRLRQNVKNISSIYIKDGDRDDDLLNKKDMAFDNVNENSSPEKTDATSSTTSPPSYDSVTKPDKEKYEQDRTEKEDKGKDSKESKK

recombinant human Nav1.8 = target: T2, recombinant human Nav1.8 (Homo sapiens, UniProt Q9Y5Y9); experiment: FRET-based membrane potential assay, Nav1.8; assay type: cell-based; conditions: HEK293 cells expressing recombinant human Nav1.8; veratridine + scorpion venom depolarization
T2 construct: host or cells: HEK293
T2 sequence (Q9Y5Y9 whole entry): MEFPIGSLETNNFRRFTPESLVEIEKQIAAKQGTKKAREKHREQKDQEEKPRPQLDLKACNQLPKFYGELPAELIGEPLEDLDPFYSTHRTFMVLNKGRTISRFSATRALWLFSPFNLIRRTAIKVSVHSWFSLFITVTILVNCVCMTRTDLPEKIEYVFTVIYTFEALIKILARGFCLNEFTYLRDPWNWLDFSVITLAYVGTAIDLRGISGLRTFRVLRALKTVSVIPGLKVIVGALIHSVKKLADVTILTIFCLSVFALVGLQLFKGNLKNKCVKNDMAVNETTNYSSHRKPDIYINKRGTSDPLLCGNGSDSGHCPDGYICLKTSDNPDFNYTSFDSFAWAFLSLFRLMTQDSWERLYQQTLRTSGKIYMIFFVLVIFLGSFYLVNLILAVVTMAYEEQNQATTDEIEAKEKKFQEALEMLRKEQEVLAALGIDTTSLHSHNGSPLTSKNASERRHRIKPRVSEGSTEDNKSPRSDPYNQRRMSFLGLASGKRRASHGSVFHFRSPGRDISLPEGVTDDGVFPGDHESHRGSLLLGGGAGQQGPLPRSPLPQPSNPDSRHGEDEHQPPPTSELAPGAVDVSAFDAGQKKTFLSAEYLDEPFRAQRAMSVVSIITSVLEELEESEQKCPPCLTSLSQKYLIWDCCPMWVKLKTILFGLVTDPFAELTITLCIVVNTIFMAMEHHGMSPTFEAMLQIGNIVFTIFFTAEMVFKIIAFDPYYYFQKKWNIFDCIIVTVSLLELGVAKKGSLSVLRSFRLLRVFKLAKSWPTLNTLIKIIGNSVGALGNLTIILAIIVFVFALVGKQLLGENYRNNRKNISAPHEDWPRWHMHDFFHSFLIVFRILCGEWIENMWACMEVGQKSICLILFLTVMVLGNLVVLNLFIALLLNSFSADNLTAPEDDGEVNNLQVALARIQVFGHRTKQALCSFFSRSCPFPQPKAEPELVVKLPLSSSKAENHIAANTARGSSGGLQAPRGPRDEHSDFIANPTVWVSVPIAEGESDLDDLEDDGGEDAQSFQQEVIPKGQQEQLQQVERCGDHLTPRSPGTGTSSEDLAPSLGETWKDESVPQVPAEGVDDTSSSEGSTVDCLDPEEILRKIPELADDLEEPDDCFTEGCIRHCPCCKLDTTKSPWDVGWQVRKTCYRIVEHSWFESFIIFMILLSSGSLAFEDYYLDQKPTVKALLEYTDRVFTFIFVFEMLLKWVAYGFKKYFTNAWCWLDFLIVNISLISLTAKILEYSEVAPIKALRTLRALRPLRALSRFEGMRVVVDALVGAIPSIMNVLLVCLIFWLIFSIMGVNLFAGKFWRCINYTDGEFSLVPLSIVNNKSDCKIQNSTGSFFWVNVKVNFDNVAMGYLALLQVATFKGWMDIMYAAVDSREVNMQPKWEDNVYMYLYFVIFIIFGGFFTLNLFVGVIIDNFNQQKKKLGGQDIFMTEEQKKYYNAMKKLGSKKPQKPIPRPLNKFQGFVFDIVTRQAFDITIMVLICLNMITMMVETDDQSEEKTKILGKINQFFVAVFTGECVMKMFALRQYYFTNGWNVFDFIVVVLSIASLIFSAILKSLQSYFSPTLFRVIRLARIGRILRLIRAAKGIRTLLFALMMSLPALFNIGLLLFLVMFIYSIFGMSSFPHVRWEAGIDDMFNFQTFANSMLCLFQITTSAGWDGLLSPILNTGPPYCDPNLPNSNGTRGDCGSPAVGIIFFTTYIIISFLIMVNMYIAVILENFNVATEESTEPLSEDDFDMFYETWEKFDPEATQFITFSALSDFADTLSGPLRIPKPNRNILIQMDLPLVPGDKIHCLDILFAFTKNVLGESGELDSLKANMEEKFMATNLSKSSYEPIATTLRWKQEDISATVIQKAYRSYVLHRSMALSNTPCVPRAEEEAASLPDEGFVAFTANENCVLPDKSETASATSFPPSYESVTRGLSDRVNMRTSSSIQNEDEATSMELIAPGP

hERG channel (Kv11.1) = target: T3, hERG channel (Kv11.1) (Homo sapiens, UniProt Q12809); experiment: hERG QPatch screening protocol (hERG current block); assay type: cell-based; conditions: HEK-293 cells stably transfected with hERG; tail current; room temperature
T3 construct: W. January (Wisconsin Alumni Research Foundation); host or cells: HEK-293
T3 sequence (Q12809 whole entry): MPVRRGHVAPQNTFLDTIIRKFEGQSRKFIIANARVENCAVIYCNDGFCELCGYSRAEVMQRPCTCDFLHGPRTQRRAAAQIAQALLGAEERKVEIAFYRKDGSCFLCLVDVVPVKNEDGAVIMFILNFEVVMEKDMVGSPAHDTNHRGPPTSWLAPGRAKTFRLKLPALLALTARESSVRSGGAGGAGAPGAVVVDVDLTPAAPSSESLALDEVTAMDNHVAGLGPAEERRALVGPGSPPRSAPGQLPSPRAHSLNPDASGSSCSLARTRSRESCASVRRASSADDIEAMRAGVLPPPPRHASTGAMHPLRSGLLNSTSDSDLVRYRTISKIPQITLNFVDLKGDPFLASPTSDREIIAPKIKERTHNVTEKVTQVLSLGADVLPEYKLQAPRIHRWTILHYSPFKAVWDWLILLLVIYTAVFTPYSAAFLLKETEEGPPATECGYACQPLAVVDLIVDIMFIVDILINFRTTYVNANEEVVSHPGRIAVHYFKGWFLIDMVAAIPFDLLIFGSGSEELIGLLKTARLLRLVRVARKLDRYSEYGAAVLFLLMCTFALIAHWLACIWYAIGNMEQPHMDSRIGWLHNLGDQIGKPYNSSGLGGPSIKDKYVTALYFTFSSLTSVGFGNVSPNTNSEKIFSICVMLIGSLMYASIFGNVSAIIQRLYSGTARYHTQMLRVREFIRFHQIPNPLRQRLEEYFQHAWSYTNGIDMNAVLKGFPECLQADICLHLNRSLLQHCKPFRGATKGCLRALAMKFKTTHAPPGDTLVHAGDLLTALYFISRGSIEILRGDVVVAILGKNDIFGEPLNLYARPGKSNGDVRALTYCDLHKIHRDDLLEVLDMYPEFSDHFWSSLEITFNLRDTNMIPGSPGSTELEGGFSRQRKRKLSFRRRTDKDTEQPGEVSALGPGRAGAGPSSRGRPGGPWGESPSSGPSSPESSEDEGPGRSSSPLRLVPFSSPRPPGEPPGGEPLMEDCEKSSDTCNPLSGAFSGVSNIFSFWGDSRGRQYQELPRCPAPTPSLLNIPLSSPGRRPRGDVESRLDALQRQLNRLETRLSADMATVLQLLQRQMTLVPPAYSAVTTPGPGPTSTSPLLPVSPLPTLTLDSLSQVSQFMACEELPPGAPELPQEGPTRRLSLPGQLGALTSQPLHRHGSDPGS
Procedure: hERG QPatch Screening Protocol
Solutions and Compound Plates:
The bath solution contained (in mM): 140 NaCl, 5 KCl, 1 MgCl2, 2 CaCl2, 5 glucose, 20 HEPES, pH=7.4. The internal solution contained (in mM): 125 K-aspartate, 20 KCl, 10 EGTA, 5 MgATP, 1 MgCl2, 5 HEPES, pH=7.3.
Compound plates were prepared with an acoustic liquid handler (Echo® 550, Labcyte), using 384-well source plates and 96-well destination plates. Compounds were delivered to the destination plates as 300 nL spots in half-log increments (1, 3, 10 and 30 mM), dissolved in dimethyl sulfoxide. Plates were solvated with bath solution (300 μL) to final concentrations (1, 3, 10 and 30 μM; 0.1% dimethyl sulfoxide) and added to the QPatch workstation.
Cells and Cell Preparation:
Human embryonic kidney (HEK-293) cells, stably transfected with the hERG channel, were obtained from Dr. C. W. January (Wisconsin Alumni Research Foundation). Cells were initially maintained at 37° C. (5% CO2 atmosphere) in MEM supplemented media. Cells were cryo-preserved in 10% dimethyl sulfoxide, 90% fetal bovine serum at 10 M cells/mL. For electrophysiological studies, cells were thawed, resuspended in media at 1.0-1.5 M cells/mL and placed on the QPatch workstation.
QPatch Electrophysiology Workstation and Experimental Protocol:
Currents were recorded using QPatch HT (Sophion), an automated planar patch-clamp system. The QPatch uses forty-eight amplifiers and a 48-chamber QPlate positioned directly on top of the headstage. To obtain high resistant seals, cells are added to each chamber and allowed to settle for 10 seconds. Negative pressure is then applied to promote cell delivery to the patch chip openings on the chamber bottom. After formation of GΩ seals, negative pressure ramps are applied to obtain intracellular access. Access resistance was initially optimized by additional pressure ramps to assure the intracellular access was adequate for voltage clamp experiments (targeted access resistance <10 MΩ). Whole-cell compensation and series resistance compensation were used at 60% (both predicted and corrected). Experiments using QPatch were conducted at room temperature.
A single application of each concentration was applied to cells. During a five-minute wash-in period, a four-second depolarizing pulse to +20 mV, followed by a five-second repolarizing pulse to −50 mV was applied once every 15 seconds from a holding potential of −80 mV. Cells were exposed to four ascending concentrations of drug in half-log intervals.
Evaluation of hERG Current Block:
hERG tail current was measured as the difference in amplitude between a […] and the end of a five-second test pulse to −50 mV, preceded by a four-second pulse to +20 mV. The hERG IC50 values for compounds were determined from tail current analysis. The IC50 was calculated with a logistic fitting routine using the following equation: y=[(A1−A2)/(1+(x/IC50))^p]A2, where A1=initial×value, A2=final×value and p=power.

[1] = test system: MIA-induced osteoarthritic pain in rats; experiment: Osteoarthritic (OA) pain induced by sodium monoiodoacetate (MIA), hind limb grip force; assay type: in vivo; conditions: rat MIA-OA, 20 days after MIA
Procedure: Osteoarthritic (OA) Pain Induced by Sodium Monoiodoacetate (MIA)
Pain behavior was assessed by measurement of hind limb grip force (GF) in adult osteoarthritic rats. Male Sprague Dawley rats, obtained from Charles River Laboratories, (Wilmington, Mass.), weighing 150-175 g, were injected in the unilateral knee join with a single intra-articular injection of sodium monoiodoacetate (MIA, 3 mg/rat). All rats were tested at 20 days following MIA injection. A behavioral measure of activity-induced pain was carried out. Measurements of the peak hind limb grip force were conducted by recording the maximum compressive force (CFmax), in grams of force, exerted on a hind limb strain gauge setup, in a commercially available grip force measurement system (Columbus Instruments, Columbus, Ohio).
During testing, each rat was gently restrained by grasping it around its rib cage and then allowed to grasp the wire mesh frame attached to the strain gauge. The experimenter then moved the animal in a rostral-to-caudal direction until the grip was broken. Each rat was sequentially tested twice at an approximately 2-3 minute interval to obtain a raw mean grip force (CFmax). This raw mean grip force data was in turn converted to a maximum hindlimb cumulative compressive force (CFmax), as the grams of force/kg of body weight, for each animal.
For evaluating the compound effects, the hind limb grip force was conducted 20 days following the intra-articular injection of MIA. A group of age-matched naïve (not injected with MIA) animals was added as a comparator to the drug-dosed groups. The vehicle control response for each group of MIA-treated animals was defined as the 0% response (0% effect), whereas the naïve control group was defined as the normal response and as 100% effect. The % effect for each dose group was expressed as % return of response to normalcy, compared to the naïve group. A percent maximal possible effect (% MPE) of testing compound was calculated according to the formula: (Treatment CFmax Vehicle CFmax)/Vehicle CFmax]×100). Higher % effect numbers indicate increased relief from the pain in the model, with 100% indicating a return to the level of response seen in normal (non-osteoarthritic) animals. All experiments evaluating drug effects in this model were conducted in a randomized blinded fashion.
The animals were housed in Association for Assessment and Accreditation of Laboratory Animal Care (AAALAC) approved facilities at AbbVie Inc. in a temperature-regulated environment under a controlled 12-hour light-dark cycle, with lights on at 6:00 a.m. Food and water were available ad libitum at all times except during testing. All testing was done following procedures outlined in protocols approved by AbbVie Inc.'s Institutional Animal Care and Use Committee.

O=C1[C@H]2[C@H](CCN2C(=O)[C@@H]2CCOC2)CN1c1cccc2c1cnn2-c1ccccc1F (mixture of isomers) [Example 3, (3aR*,6aR*)-5-[1-(2-fluorophenyl)-1H-indazol-4-yl]-1-[(3R)-tetrahydrofuran-3-ylcarbonyl]hexahydropyrrolo[3,4-b]pyrrol-6(1H)-one]
IC50 (recombinant human Nav1.7): 1930 nM | IC50 (recombinant human Nav1.8): 5.4 µM | IC50 (hERG channel (Kv11.1)): > 30 µM

C[C@@H](O)CC(=O)N1CC[C@@H]2CN(c3cccc4c3cnn4-c3ccccc3F)C(=O)[C@@H]21 (mixture of isomers) [Example 7, (3aR*,6aR*)-5-[1-(2-fluorophenyl)-1H-indazol-4-yl]-1-[(3R)-3-hydroxybutanoyl]hexahydropyrrolo[3,4-b]pyrrol-6(1H)-one]
IC50 (recombinant human Nav1.7): 3190 nM | IC50 (recombinant human Nav1.8): 3.08 µM | IC50 (hERG channel (Kv11.1)): > 30 µM

CC(=O)N1CC[C@@H]2CN(c3cccc4c3cnn4-c3ccccc3F)C(=O)[C@@H]21 (relative stereo) [Example 6, rel-(3aR,6aR)-1-acetyl-5-[1-(2-fluorophenyl)-1H-indazol-4-yl]hexahydropyrrolo[3,4-b]pyrrol-6(1H)-one]
IC50 (recombinant human Nav1.7): 13100 nM | IC50 (recombinant human Nav1.8): 14.7 µM

CC(C)(O)CC(=O)N1CC[C@@H]2CN(c3cccc4c3cnn4-c3ccccc3F)C(=O)[C@@H]21 (single isomer, unassigned) [Example 1]
IC50 (recombinant human Nav1.8): 2.79 µM | IC50 (hERG channel (Kv11.1)): > 30 µM | OA MPE ([1]; OA dose 30 mg/kg): 70%

CC(C)(O)CC(=O)N1CC[C@H]2CN(c3cccc4c3cnn4-c3ccccc3F)C(=O)[C@H]21 (single isomer, unassigned) [Example 2]
IC50 (recombinant human Nav1.8): 2.38 µM | IC50 (hERG channel (Kv11.1)): > 30 µM | OA MPE ([1]; OA dose 30 mg/kg): 62%

CC(C)S(=O)(=O)N1C[C@@H]2CN(c3cccc4c3cnn4-c3ccccc3F)C(=O)[C@@H]2C1 [Example 24, (3aS,6aS)-2-[1-(2-fluorophenyl)-1H-indazol-4-yl]-5-(isopropylsulfonyl)hexahydropyrrolo[3,4-c]pyrrol-1 (2H)-one]
IC50 (recombinant human Nav1.7): 1980 nM | IC50 (recombinant human Nav1.8): 0.59 µM | IC50 (hERG channel (Kv11.1)): 17 µM | OA MPE ([1]; OA dose 10 mg/kg): 66%

O=C1[C@@H]2CN(S(=O)(=O)c3ccccc3)C[C@@H]2CN1c1cccc2c1cnn2-c1ccccc1F [Example 29, (3aS,6aS)-2-[1-(2-fluorophenyl)-1H-indazol-4-yl]-5-(phenylsulfonyl)hexahydropyrrolo[3,4-c]pyrrol-1(2H)-one]
IC50 (recombinant human Nav1.7): 2880 nM | IC50 (hERG channel (Kv11.1)): 26.5 µM

O=C(c1coc(CN2CCCC2)n1)N1C[C@@H]2CN(c3cccc4c3cnn4-c3ccccc3F)C(=O)[C@@H]2C1 [Example 31, (3aR,6aS)-2-[1-(2-fluorophenyl)-1H-indazol-4-yl]-5-{[2-(pyrrolidin-1-ylmethyl)-1,3-oxazol-4-yl]carbonyl}hexahydropyrrolo[3,4-c]pyrrol-1(2H)-one]
IC50 (recombinant human Nav1.7): 463 nM | IC50 (hERG channel (Kv11.1)): 13.5 µM

O=C(C1CCOC1)N1C[C@@H]2CN(c3cccc4c3cnn4-c3ccccc3F)C(=O)[C@@H]2C1 (stereo partly drawn) [Example 32, (3aR,6aS)-2-[1-(2-fluorophenyl)-1H-indazol-4-yl]-5-(tetrahydrofuran-3-ylcarbonyl)hexahydropyrrolo[3,4-c]pyrrol-1(2H)-one]
IC50 (recombinant human Nav1.7): 1690 nM | IC50 (hERG channel (Kv11.1)): 7.43 µM | OA MPE ([1]; OA dose 10 mg/kg): 9%

O=C(C1CC(Cl)C1)N1C[C@H]2CN(c3cccc4c3cnn4-c3ccccc3F)C(=O)[C@H]2C1 (stereo partly drawn) [Example 43, (3aS,6aR)-5-[(3-chlorocyclobutyl)carbonyl]-2-[1-(2-fluorophenyl)-1H-indazol-4-yl]hexahydropyrrolo[3,4-c]pyrrol-1(2H)-one]
IC50 (recombinant human Nav1.7): 3030 nM | IC50 (hERG channel (Kv11.1)): > 30 µM

NC(=O)CC(=O)N1C[C@H]2CN(c3cccc4c3cnn4-c3ccccc3F)C(=O)[C@H]2C1 [Example 44, 3-[(3aR,6aS)-5-[1-(2-fluorophenyl)-1H-indazol-4-yl]-4-oxohexahydropyrrolo[3,4-c]pyrrol-2(1H)-yl]-3-oxopropanamide]
IC50 (recombinant human Nav1.7): > 20000 nM | IC50 (recombinant human Nav1.8): > 20 µM

O=C(CCO)N1C[C@H]2CN(c3cccc4c3cnn4-c3ccccc3F)C(=O)[C@H]2C1 [Example 45, (3aS,6aR)-2-[1-(2-fluorophenyl)-1H-indazol-4-yl]-5-(3-hydroxypropanoyl)hexahydropyrrolo[3,4-c]pyrrol-1(2H)-one]
IC50 (recombinant human Nav1.7): > 20000 nM | IC50 (recombinant human Nav1.8): > 20 µM

CC(=O)N1C[C@H]2CN(c3cccc4c3cnn4-c3ccccc3F)C(=O)[C@H]2C1 [Example 46, (3aS,6aR)-5-acetyl-2-[1-(2-fluorophenyl)-1H-indazol-4-yl]hexahydropyrrolo[3,4-c]pyrrol-1(2H)-one]
IC50 (recombinant human Nav1.7): 3560 nM | IC50 (hERG channel (Kv11.1)): > 30 µM

CC(C)(O)C(=O)N1CC[C@H]2CN(c3cccc4c3cnn4-c3ccccc3F)C(=O)[C@H]21 [Example 49, (3aS,6aS)-5-[1-(2-fluorophenyl)-1H-indazol-4-yl]-1-(2-hydroxy-2-methylpropanoyl)hexahydropyrrolo[3,4-b]pyrrol-6(1H)-one]
IC50 (recombinant human Nav1.7): 397 nM | IC50 (recombinant human Nav1.8): 4.03 µM
